Measured values: patent publication US20250009734A1, “METHODS OF INHIBITING FOXO1 FOR TREATMENT OF LYMPHATIC DISORDERS” (UNIVERSITY OF SOUTH FLORIDA, priority 2023, published 2025)

Test system: Foxc2^+/CreERT2 mice
Test: Whole-mount immunostaining of mesenteric collecting lymphatic vessels after injection
Assay type: in vivo, mouse
Excerpt: FIG. 4. AS1842856 injection promotes b-catenin nuclear localization in vivo. Panels A-P′ show whole-mount immunostaining of P10 mesenteric collecting lymphatic vessels from wildtype and Foxc2^+/CreERT2 pups with vehicle control (DMSO) or AS1842856 injection. Prox1 in green, Ctnnb1 in purple, and VE-cadherin in gray. A′-P′ are the higher magnification images of the white box areas in A-P. Scale bars are 100 μm.
Foxc2 is a chief regulator of lymphatic valve development modulating the expression of many valve genes (Sabine et al., 2015). While Foxc2 null animals are embryonic lethal, the Foxc2 heterozygous mice are a model of the human disease lymphedema-distichiasis with severe lymphatic valve loss (Kriederman et al., 2003, Petrova et al., 2004). To test whether AS1842856 treatment increases valve growth in vivo, the inventors intraperitoneally (i.p.) injected AS1842856 into Foxc2^+/CreERT2 pups. […] Since the open reading frame in one allele of the Foxc2 gene is replaced with the cDNA for CreERT2, the Foxc2^+/CreERT2 mice is heterozygous for Foxc2 gene (Geng et al., 2016). […] To compare the number of valves from these 4 groups, the inventors counted total number of valves from 6 branches (from the lymph nodes to the gut wall) in the mesentery and measured the total length of these branches as previously published (Scallan et al., 2021). […]

In the case of `CCn1cc(C(=O)O)c(=O)c2c(N)c(F)c(NC3CCCCC3)cc21` [AS1842856], the “valves expressing Itga9 (whole-mount immunostaining)” value (AS1842856 treated Foxc2^+/CreERT2 pups) was “all the valves” and the “nuclear localization of β-catenin in mesenteric LECs in vivo” value (P10 mesenteries after two injections, wildtype and Foxc2^+/CreERT2 pups, vs DMSO injected group) was “increased nuclear purple staining from β-catenin”.
